For series [1] the following is noted: cited from earlier work.
A further series concerns the target T1, DPP IV enzyme (Homo sapiens, UniProt P27487).
T1 construct: purchased Sigma-Aldrich
Description: Stability against DPP IV proteolysis with or without HSA. It is filed as in vitro ADME. The conditions noted are these: for degradation in DPP IV proteolysis compared with wild-type GLP-1, within 24 h / detectability of full-length peptide at 24 h: DPP IV 0.1 mg/ml, peptide 1 mg/ml; for degradation in DPP IV proteolysis compared with wild-type GLP-1, within 24 h: 25 mM potassium phosphate, 25 mM KCl, 5 mM MgCl2, pH 7.0, 2% HSA; for detectability of full-length peptide at 24 h: pH 7.0, in the presence of human serum albumin (2%).

The target in the next series is T2, GLP-1 receptor (GLP-1R) (Rattus norvegicus, UniProt P32301).
T2 construct: endogenous in cells; host or cells: rat INS-1 cells
T2 sequence (P32301 22-463): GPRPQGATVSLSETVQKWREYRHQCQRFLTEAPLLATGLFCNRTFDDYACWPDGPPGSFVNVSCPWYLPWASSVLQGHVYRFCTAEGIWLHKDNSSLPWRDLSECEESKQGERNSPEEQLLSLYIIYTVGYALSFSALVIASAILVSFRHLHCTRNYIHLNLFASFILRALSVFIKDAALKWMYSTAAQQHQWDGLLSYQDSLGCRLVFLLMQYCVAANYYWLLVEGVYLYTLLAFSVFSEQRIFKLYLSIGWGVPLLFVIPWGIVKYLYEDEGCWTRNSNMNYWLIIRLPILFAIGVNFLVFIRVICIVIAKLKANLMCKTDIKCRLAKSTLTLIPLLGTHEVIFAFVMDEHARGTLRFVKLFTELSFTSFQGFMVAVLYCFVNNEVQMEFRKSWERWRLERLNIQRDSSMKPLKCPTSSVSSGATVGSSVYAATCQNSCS
Description: GLP-1 receptor binding assay (cellular ELISA). Here is the method: Cells were rinsed with PBS and fixed with 4% paraformaldehyde (Thermo Scientific) for 10 min at room temperature and quenched for 5 min with 2% glycine in PBS, pH 7.5. […] After a 2 h incubation at 37 °C in a final volume of 100 μl, the excess peptides were washed, and the cells were blocked with 5% BSA (BD Biosciences). […] Colorimetric changes were analyzed by reading the absorbance at 450 nm in a SpectraMax M5 (Molecular Device) microplate reader. The peptide concentration was plotted against UV absorbance, and the Kd was calculated using Origin 7.0 software.
(ELISA stands for enzyme-linked immunosorbent assay.)

The nature of series [2]: Blood retention time measurement. The conditions noted are these: 500 μg/kg s.c., Wistar rats, n = 5, GLP-1 (7–37) ELISA.
Setting [3] is: DPP IV proteolysis solution, 37 °C, GLP-1 (7–37) ELISA, P < 0.01.

Structures are written as SMILES.

T1 sequence (P27487 whole entry, species assumed): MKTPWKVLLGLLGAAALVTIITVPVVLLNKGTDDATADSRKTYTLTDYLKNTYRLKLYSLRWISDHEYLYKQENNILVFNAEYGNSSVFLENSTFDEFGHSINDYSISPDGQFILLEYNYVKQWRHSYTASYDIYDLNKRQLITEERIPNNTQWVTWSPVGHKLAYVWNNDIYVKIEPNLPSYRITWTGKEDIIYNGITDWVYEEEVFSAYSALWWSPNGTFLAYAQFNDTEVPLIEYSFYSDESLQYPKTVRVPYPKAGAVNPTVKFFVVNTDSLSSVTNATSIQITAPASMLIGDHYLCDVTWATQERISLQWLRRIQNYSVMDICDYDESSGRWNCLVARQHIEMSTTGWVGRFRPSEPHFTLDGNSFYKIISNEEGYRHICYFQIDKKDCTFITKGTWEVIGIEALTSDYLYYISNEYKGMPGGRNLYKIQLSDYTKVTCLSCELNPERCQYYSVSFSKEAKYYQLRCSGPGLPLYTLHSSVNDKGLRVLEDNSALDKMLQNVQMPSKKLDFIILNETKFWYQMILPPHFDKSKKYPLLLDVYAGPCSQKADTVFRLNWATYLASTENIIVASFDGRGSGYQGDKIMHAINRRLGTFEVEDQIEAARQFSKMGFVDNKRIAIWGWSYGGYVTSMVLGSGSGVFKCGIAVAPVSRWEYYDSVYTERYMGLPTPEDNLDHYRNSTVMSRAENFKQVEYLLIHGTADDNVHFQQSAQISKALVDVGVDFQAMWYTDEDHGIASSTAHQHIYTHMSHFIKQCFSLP
Description for DPP IV enzyme: DPP IV enzyme (0.1 mg/ml) was dissolved in 25 mM potassium phosphate buffer containing 25 mM potassium chloride and 5 mM magnesium chloride, pH 7.0.

As for `CC[C@H](C)[C@H](NC(=O)[C@H](Cc1ccccc1)NC(=O)[C@H](CCC(=O)O)NC(=O)[C@H](CCCCN)NC(=O)[C@H](C)NC(=O)[C@H](C)NC(=O)[C@H](CCC(N)=O)NC(=O)CNC(=O)[C@H](CCC(=O)O)NC(=O)[C@H](CC(C)C)NC(=O)[C@H](Cc1ccc(O)cc1)NC(=O)[C@H](CO)NC(=O)[C@H](CO)NC(=O)[C@@H](NC(=O)[C@H](CC(=O)O)NC(=O)[C@H](CO)NC(=O)[C@@H](NC(=O)[C@H](Cc1ccccc1)NC(=O)[C@@H](NC(=O)CNC(=O)[C@H](CCC(=O)O)NC(=O)[C@H](C)NC(=O)[C@@H](N)Cc1c[nH]cn1)[C@@H](C)O)[C@@H](C)O)C(C)C)C(=O)N[C@@H](C)C(=O)N[C@@H](Cc1c[nH]c2ccccc12)C(=O)N[C@@H](CC(C)C)C(=O)N[C@H](C(=O)N[C@@H](CCCCN)C(=O)NCC(=O)N[C@@H](CCCN=C(N)N)C(=O)NCC(=O)O)C(C)C` [GLP-1, glucagon-like peptide-1], the “stability (half-life) of native GLP-1” value in series [1] (degradation by DPP-IV, reference not given) is 3 to 5 min. The renal clearance entry in series [1] (in vivo) is on record as “less than 10 min”.

By Kd is commonly meant the concentration at which binding is half-saturated. A high value points to a looser complex. For the compound `CCCCCCCCCCCCCCCCNC(=O)CC[C@H](NC(=O)[C@H](CCCCN)NC(=O)[C@H](C)NC(=O)[C@H](C)NC(=O)[C@H](CCC(N)=O)NC(=O)CNC(=O)[C@H](CCC(=O)O)NC(=O)[C@H](CC(C)C)NC(=O)[C@H](Cc1ccc(O)cc1)NC(=O)[C@H](CO)NC(=O)[C@H](CO)NC(=O)[C@@H](NC(=O)[C@H](CC(=O)O)NC(=O)[C@H](CO)NC(=O)[C@@H](NC(=O)[C@H](Cc1ccccc1)NC(=O)[C@@H](NC(=O)CNC(=O)[C@H](CCC(=O)O)NC(=O)[C@H](C)NC(=O)[C@@H](N)Cc1c[nH]cn1)[C@@H](C)O)[C@@H](C)O)C(C)C)C(=O)N[C@@H](Cc1ccccc1)C(=O)N[C@H](C(=O)N[C@@H](C)C(=O)N[C@@H](Cc1c[nH]c2ccccc12)C(=O)N[C@@H](CC(C)C)C(=O)N[C@H](C(=O)N[C@@H](CCCCN)C(=O)NCC(=O)N[C@@H](CCCNC(=N)N)C(=O)NCC(=O)O)C(C)C)[C@@H](C)CC` [compound 18], at DPP IV enzyme (37 °C, GLP-1 (7–37) ELISA), the “degradation in DPP IV proteolysis compared with wild-type GLP-1, within 24 h” value is recorded as “slower degradation rates” and the “detectability of full-length peptide at 24 h” value (“detectability” for short) is “still detectable at 24 h”. For the same compound, at GLP-1 receptor (GLP-1R), the affinity, expressed as Kd, was 16.5 ± 2.17 nM.

Turning to `CCCCCCCCCCCCCCCCNC(=O)C[C@H](NC(=O)[C@@H](NC(=O)[C@H](CC(C)C)NC(=O)[C@H](Cc1c[nH]c2ccccc12)NC(=O)[C@H](C)NC(=O)[C@@H](NC(=O)[C@H](Cc1ccccc1)NC(=O)[C@H](CCC(=O)O)NC(=O)[C@H](CCCCN)NC(=O)[C@H](C)NC(=O)[C@H](C)NC(=O)[C@H](CCC(N)=O)NC(=O)CNC(=O)[C@H](CCC(=O)O)NC(=O)[C@H](CC(C)C)NC(=O)[C@H](Cc1ccc(O)cc1)NC(=O)[C@H](CO)NC(=O)[C@H](CO)NC(=O)[C@@H](NC(=O)[C@H](CC(=O)O)NC(=O)[C@H](CO)NC(=O)[C@@H](NC(=O)[C@H](Cc1ccccc1)NC(=O)[C@@H](NC(=O)CNC(=O)[C@H](CCC(=O)O)NC(=O)[C@H](C)NC(=O)[C@@H](N)Cc1c[nH]cn1)[C@@H](C)O)[C@@H](C)O)C(C)C)[C@@H](C)CC)C(C)C)C(=O)NCC(=O)N[C@@H](CCCNC(=N)N)C(=O)NCC(=O)O` [compound 21], the “detectability” value at DPP IV enzyme (37 °C, GLP-1 (7–37) ELISA) is on record as “still detectable at 24 h”. On DPP IV enzyme (setting [3]), the “AUCGLP-1(7–37) in proteolysis solution compared to native GLP-1” value is given as “significantly increased”. Moreover, the equilibrium dissociation constant (Kd) on GLP-1 receptor (GLP-1R) was determined as 17.5 ± 2.75 nM.

On to `CCCCCCCCCCCCNC(=O)CC[C@H](NC(=O)[C@H](CCCCN)NC(=O)[C@H](C)NC(=O)[C@H](C)NC(=O)[C@H](CCC(N)=O)NC(=O)CNC(=O)[C@H](CCC(=O)O)NC(=O)[C@H](CC(C)C)NC(=O)[C@H](Cc1ccc(O)cc1)NC(=O)[C@H](CO)NC(=O)[C@H](CO)NC(=O)[C@@H](NC(=O)[C@H](CC(=O)O)NC(=O)[C@H](CO)NC(=O)[C@@H](NC(=O)[C@H](Cc1ccccc1)NC(=O)[C@@H](NC(=O)CNC(=O)[C@H](CCC(=O)O)NC(=O)[C@H](C)NC(=O)[C@@H](N)Cc1c[nH]cn1)[C@@H](C)O)[C@@H](C)O)C(C)C)C(=O)N[C@@H](Cc1ccccc1)C(=O)N[C@H](C(=O)N[C@@H](C)C(=O)N[C@@H](Cc1c[nH]c2ccccc12)C(=O)N[C@@H](CC(C)C)C(=O)N[C@H](C(=O)N[C@@H](CCCCN)C(=O)NCC(=O)N[C@@H](CCCNC(=N)N)C(=O)NCC(=O)O)C(C)C)[C@@H](C)CC` [compound 17], for which, on DPP IV enzyme (37 °C, GLP-1 (7–37) ELISA), the “degradation in DPP IV proteolysis compared with wild-type GLP-1, within 24 h” value is recorded as “slower degradation rates” and the “detectability” value is recorded as “still detectable at 24 h”. For the same compound, the Kd on GLP-1 receptor (GLP-1R) was 18.7 ± 2.13 nM.

Regarding `CCCCCCCCCCCCCCCC(=O)NCCCC[C@H](NC(=O)[C@@H](NC(=O)[C@H](CC(C)C)NC(=O)[C@H](Cc1c[nH]c2ccccc12)NC(=O)[C@H](C)NC(=O)[C@@H](NC(=O)[C@H](Cc1ccccc1)NC(=O)[C@H](CCC(=O)O)NC(=O)[C@H](CCCCN)NC(=O)[C@H](C)NC(=O)[C@H](C)NC(=O)[C@H](CCC(N)=O)NC(=O)CNC(=O)[C@H](CCC(=O)O)NC(=O)[C@H](CC(C)C)NC(=O)[C@H](Cc1ccc(O)cc1)NC(=O)[C@H](CO)NC(=O)[C@H](CO)NC(=O)[C@@H](NC(=O)[C@H](CC(=O)O)NC(=O)[C@H](CO)NC(=O)[C@@H](NC(=O)[C@H](Cc1ccccc1)NC(=O)[C@@H](NC(=O)CNC(=O)[C@H](CCC(=O)O)NC(=O)[C@H](C)NC(=O)[C@@H](N)Cc1c[nH]cn1)[C@@H](C)O)[C@@H](C)O)C(C)C)[C@@H](C)CC)C(C)C)C(=O)NCC(=O)N[C@@H](CCCNC(=N)N)C(=O)NCC(=O)O` [compound 6], at DPP IV enzyme (37 °C, GLP-1 (7–37) ELISA), the “degradation in DPP IV proteolysis compared with wild-type GLP-1, within 24 h” value is reported as “slower degradation rates” and the “detectability” value is reported as “still detectable at 24 h”. The compound further gave a Kd at GLP-1 receptor (GLP-1R) of 13.7 ± 0.88 nM.

`CC[C@H](C)[C@H](NC(=O)[C@H](Cc1ccccc1)NC(=O)[C@H](CCC(=O)O)NC(=O)[C@H](CCCCN)NC(=O)[C@H](C)NC(=O)[C@H](C)NC(=O)[C@H](CCC(N)=O)NC(=O)CNC(=O)[C@H](CCC(=O)O)NC(=O)[C@H](CC(C)C)NC(=O)[C@H](Cc1ccc(O)cc1)NC(=O)[C@H](CO)NC(=O)[C@H](CO)NC(=O)[C@@H](NC(=O)[C@H](CC(=O)O)NC(=O)[C@H](CO)NC(=O)[C@@H](NC(=O)[C@H](Cc1ccccc1)NC(=O)[C@@H](NC(=O)CNC(=O)[C@H](CCC(=O)O)NC(=O)[C@H](C)NC(=O)[C@@H](N)Cc1c[nH]cn1)[C@@H](C)O)[C@@H](C)O)C(C)C)C(=O)N[C@@H](C)C(=O)N[C@@H](Cc1c[nH]c2ccccc12)C(=O)N[C@@H](CC(C)C)C(=O)N[C@H](C(=O)N[C@@H](CC(=O)NCCCCCCCCCCCC(=O)O)C(=O)NCC(=O)N[C@@H](CCCNC(=N)N)C(=O)NCC(=O)O)C(C)C` [compound 22]: the “increase of circulating amount (AUC GLP-1 (7-37)) compared with native GLP-1” value in series [2] (0.5-96 h) turned out to be 2.6 fold. In addition, the “blood retention / serum level behaviour” value in series [2] is “extended the stabilities in vivo”. Also, on DPP IV enzyme (37 °C, GLP-1 (7–37) ELISA), the “detectability” value is on record as “still detectable at 24 h”. At DPP IV enzyme (DPP IV proteolysis solution, 37 °C, 0-24 h, GLP-1 (7–37) ELISA, P < 0.01), the “AUC0–24 h, amount of undigested GLP-1 fragments compared with wild-type GLP-1” value is given as “approximately 3.5 fold”. The “AUCGLP-1(7–37) in proteolysis solution compared to native GLP-1” value on DPP IV enzyme (setting [3]) was “significantly increased”. Further, the “degradation rate against DPP IV compared with compounds 6 and 21, respectively” value on DPP IV enzyme (DPP IV proteolysis, same carbon chain length without free carboxyl group as comparator) was “significantly lower degradation rates”. The compound also registered a Kd at GLP-1 receptor (GLP-1R) of 21.1 ± 2.34 nM.

(Values after publication PMC4676015, “Variant fatty acid-like molecules Conjugation, novel approaches for extending the stability of therapeutic peptides” (Scientific Reports, 2015).)
